Reference: patent publication US20220220128A1, “HETEROCYCLIC COMPOUNDS AS KINASE INHIBITORS, COMPOSITIONS COMPRISING THE HETEROCYCLIC COMPOUND, AND METHODS OF USE THEREOF” (JS Innopharm (Shanghai) Ltd, priority 2019, published 2022)
Read-outs that look alike come from different tables or passages of the source.

Columns and labels:
human RET kinase = target: T1, human RET kinase (Homo sapiens, UniProt P07949); test: RET Kinase Assay (LanthaScreen TR-FRET enzymatic assay); type: biochemical; settings: 7 nM RET, 23 μM ATP
T1 construct: purchased Carna 08-159
T1 sequence (P07949 29-1114): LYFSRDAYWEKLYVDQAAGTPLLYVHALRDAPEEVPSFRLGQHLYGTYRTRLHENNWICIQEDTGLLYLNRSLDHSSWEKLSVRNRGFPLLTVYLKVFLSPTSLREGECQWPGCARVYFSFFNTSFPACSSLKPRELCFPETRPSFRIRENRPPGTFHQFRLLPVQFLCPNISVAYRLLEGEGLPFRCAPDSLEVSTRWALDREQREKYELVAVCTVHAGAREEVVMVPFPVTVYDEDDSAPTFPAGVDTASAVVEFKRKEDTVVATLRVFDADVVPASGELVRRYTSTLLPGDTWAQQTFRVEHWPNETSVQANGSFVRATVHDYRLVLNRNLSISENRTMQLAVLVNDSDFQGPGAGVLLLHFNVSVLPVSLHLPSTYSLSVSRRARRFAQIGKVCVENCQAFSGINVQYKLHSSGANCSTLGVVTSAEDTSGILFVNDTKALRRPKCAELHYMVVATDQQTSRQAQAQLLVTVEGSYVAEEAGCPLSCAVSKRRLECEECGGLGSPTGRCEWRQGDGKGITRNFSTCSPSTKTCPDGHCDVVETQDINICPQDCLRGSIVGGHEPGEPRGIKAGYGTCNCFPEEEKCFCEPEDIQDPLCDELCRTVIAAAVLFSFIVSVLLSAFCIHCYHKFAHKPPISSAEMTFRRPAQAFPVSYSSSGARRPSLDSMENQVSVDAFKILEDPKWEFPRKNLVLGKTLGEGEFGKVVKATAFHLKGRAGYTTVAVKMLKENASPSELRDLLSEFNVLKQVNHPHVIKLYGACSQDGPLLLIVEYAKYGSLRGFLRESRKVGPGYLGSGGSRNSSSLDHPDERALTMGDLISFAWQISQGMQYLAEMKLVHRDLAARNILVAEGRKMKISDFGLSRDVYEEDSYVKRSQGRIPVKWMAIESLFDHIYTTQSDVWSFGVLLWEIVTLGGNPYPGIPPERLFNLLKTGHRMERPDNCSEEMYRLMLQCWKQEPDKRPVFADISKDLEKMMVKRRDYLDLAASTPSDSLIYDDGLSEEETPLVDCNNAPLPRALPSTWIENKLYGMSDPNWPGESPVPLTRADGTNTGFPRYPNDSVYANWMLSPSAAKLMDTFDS
Procedure, shortened: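 TR-FRET enzymatic read-out using 23 μM ATP, 3 μM FAM-P2 substrate and 7 nM human RET, after 15-min compound pretreatment at room temperature and a 1 h reaction at 28° C in HEPES pH 7.5 buffer. Percent of DMSO control fitted to nonlinear sigmoid curves for IC50.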

TT cells = test: TT Cell Proliferation Assay (WST-8, 8 days); type: cell-based; settings: Homo sapiens, 192 h, growth inhibition in TT cells, read-out: TT Cellular Activity
Procedure, shortened: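 IC50 was derived from absorbance at 450 nm after 5 h with WST-8, following 8 days' incubation at 37 °C. Final compound levels spanned 0.0005–5 μM in 0.5% DMSO. TT cells were seeded at 6,000 per well in 10% FBS RPMI-1640 and left to attach for 24 h beforehand.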

human KDR kinase = target: T2, human KDR kinase (Homo sapiens, UniProt P35968); test: KDR Kinase Assay (LanthaScreen TR-FRET enzymatic assay); type: biochemical; settings: 1.2 nM KDR, 92 μM ATP
T2 construct: purchased Carna 08-191
T2 sequence (P35968 20-1356): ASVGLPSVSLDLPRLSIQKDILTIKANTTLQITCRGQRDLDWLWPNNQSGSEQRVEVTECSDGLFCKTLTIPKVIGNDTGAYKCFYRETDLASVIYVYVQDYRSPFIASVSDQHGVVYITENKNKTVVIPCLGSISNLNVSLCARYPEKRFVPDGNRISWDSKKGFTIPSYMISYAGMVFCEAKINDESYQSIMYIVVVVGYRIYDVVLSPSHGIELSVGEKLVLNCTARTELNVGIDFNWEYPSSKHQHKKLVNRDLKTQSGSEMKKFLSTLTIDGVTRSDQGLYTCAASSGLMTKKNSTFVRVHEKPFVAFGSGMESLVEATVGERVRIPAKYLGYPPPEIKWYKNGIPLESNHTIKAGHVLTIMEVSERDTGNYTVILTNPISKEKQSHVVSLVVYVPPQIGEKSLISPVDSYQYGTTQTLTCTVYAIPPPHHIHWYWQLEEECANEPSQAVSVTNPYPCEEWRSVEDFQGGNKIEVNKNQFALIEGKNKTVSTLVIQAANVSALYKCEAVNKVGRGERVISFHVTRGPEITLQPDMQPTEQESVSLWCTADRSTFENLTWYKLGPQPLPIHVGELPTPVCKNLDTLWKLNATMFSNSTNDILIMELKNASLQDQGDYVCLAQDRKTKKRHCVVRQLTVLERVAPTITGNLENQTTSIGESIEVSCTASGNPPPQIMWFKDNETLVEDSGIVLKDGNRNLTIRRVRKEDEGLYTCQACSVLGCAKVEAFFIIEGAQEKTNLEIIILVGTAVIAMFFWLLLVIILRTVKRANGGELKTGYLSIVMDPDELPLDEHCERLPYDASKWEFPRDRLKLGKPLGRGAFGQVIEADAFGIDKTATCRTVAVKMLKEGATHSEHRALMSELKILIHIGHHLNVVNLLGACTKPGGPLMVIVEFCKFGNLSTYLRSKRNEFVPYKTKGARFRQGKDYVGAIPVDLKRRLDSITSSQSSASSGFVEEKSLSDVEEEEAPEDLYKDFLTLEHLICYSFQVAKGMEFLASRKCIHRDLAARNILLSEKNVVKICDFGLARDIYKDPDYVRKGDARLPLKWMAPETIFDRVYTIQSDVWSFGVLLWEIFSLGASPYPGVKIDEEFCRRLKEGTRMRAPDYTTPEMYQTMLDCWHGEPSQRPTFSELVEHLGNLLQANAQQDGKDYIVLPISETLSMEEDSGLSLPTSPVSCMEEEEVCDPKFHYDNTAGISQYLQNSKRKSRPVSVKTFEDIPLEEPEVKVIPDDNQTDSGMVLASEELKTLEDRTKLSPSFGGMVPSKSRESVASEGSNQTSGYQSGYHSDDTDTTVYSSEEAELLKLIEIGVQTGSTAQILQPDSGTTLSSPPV
Procedure, shortened: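 TR-FRET enzymatic format: after 15-min room-temperature compound pretreatment, 1.2 nM human KDR phosphorylated 3 μM FAM-P22 with 92 μM ATP (HEPES pH 7.5, 28° C., one hour). Reactions were quenched with EDTA buffer. IC50 came from nonlinear sigmoid fits of percent-of-vehicle signal ratios.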

| Structure (SMILES) | IC50 (human RET kinase) [nM] | IC50 (human KDR kinase) [nM] | IC50 (TT cells; TT) [nM] | IC50 (TT cells) [nM] |
| --- | --- | --- | --- | --- |
| COc1ccc(NC(=O)N[C@H]2[C@@H]3CN(c4ccc(-c5cc(OCC(C)(C)O)cn6ncc(C#N)c56)cn4)C[C@@H]32)cn1 [Example 183, 1-((1R,5S,6s)-3-(5-(3-cyano-6-(2-hydroxy-2-methylpropoxy)pyrazolo[1,5-a]pyridin-4-yl)pyridin-2-yl)-3-azabicyclo[3.1.0]hexan-6-yl)-3-(6-methoxypyridin-3-yl)urea] | 10 to 50 | > 100 | > 100 | – |
| CC(C)(O)COc1cc(-c2ccc(N3C[C@@H]4[C@H](C3)[C@H]4NC(=O)[C@H](O)c3ccccc3)nc2)c2c(C#N)cnn2c1 [Example 40, (R)-N-((1R,5S,6s)-3-(5-(3-cyano-6-(2-hydroxy-2-methylpropoxy)pyrazolo[1,5-a]pyridin-4-yl)pyridin-2-yl)-3-azabicyclo[3.1.0]hexan-6-yl)-2-hydroxy-2-phenylacetamide] | 10 to 50 | > 100 | 50 to 100 | – |
| COc1ccc(CN2C[C@@H]3CN(c4ccc(-c5cc(OCC(C)(C)O)cn6ncc(C#N)c56)cn4)C[C@@H]3C2)cn1 [Example 14, 6-(2-hydroxy-2-methylpropoxy)-4-(6-((3aR,6aS)-5-((6-methoxypyridin-3-yl)methyl)hexahydropyrrolo[3,4-c]pyrrol-2(1H)-yl)pyridin-3-yl)pyrazolo[1,5-a]pyridine-3-carbonitrile] | ≤ 10 | > 100 | 10 to 50 | – |
| Cc1ccc(Cl)c(C(=O)NC[C@@H]2[C@H]3CN(c4ccc(-c5cc(-c6cnn(C)c6)cn6ncc(C#N)c56)cn4)C[C@@H]23)n1 [Example 82, 3-chloro-N-(((1R,5S,6s)-3-(5-(3-cyano-6-(1-methyl-1H-pyrazol-4-yl)pyrazolo[1.5-a]pyridin-4-yl)pyridin-2-yl)-3-azabicyclo[3.1.0]hexan-6-yl)methyl)-6-methylpicolinamide] | ≤ 10 | ≤ 10 | ≤ 10 | – |
| Cn1cc(-c2cc(-c3ccc(N4C[C@@H]5[C@H](C4)[C@H]5NC(=O)C(N)c4ccccc4)nc3)c3c(C#N)cnn3c2)cn1 (stereo partly drawn) [Example 32, 2-amino-N-((1R,5S,6s)-3-(5-(3-cyano-6-(1-methyl-1H-pyrazol-4-yl)pyrazolo[1,5-a]pyridin-4-yl)pyridin-2-yl)-3-azabicyclo[3.1.0]hexan-6-yl)-2-phenylacetamide] | ≤ 10 | > 100 | ≤ 10 | – |
| Cn1cc(-c2cc(-c3ccc(N4C[C@@H]5[C@H](C4)[C@@H]5NS(=O)(=O)c4c(F)cccc4Cl)nc3)c3c(C#N)cnn3c2)cn1 [Example 35, 2-chloro-N-((1R,5S,6r)-3-(5-(3-cyano-6-(1-methyl-1H-pyrazol-4-yl)pyrazolo[1,5-a]pyridin-4-yl)pyridin-2-yl)-3-azabicyclo[3.1.0]hexan-6-yl)-6-fluorobenzenesulfonamide] | ≤ 10 | 10 to 50 | 10 to 50 | – |
| Cn1cc(-c2cc(-c3cnc(N4C[C@@H]5CN(S(=O)(=O)c6c(F)cccc6Cl)C[C@@H]5C4)cn3)c3c(C#N)cnn3c2)cn1 [Example 182, 4-(5-((3aR,6aS)-5-((2-chloro-6-fluorophenyl)sulfonyl)hexahdropyrrolo[3,4-c]pyrrol-2(1H)-yl)pyrazin-2-yl)-6-(1-methyl-1H-pyrazol-4-yl)pyrazolo[1,5-a]pyridine-3-carbonitrile] | ≤ 10 | 10 to 50 | ≤ 10 | – |
| CCOc1cc(-c2ccc(N3C[C@H]4CN(C(=O)c5ncccc5Cl)C[C@H]4C3)nc2)c2c(C#N)cnn2c1 [Example 6, 4-(6-((3aR,6aS)-5-(3-chloropicolinoyl)hexahydropyrrolo[3,4-c]pyrrol-2(1H)-yl)pyridin-3-yl)-6-ethoxypyrazolo[1,5-a]pyridine-3-carbonitrile] | ≤ 10 | > 100 | 10 to 50 | – |
| COc1cc(-c2ccc(N3C[C@@H]4[C@H](C3)[C@H]4NC(=O)c3ncccc3Cl)nc2)c2c(C#N)cnn2c1 [Example 39, 3-chloro-N-((1R,5S,6s)-3-(5-(3-cyano-6-methoxypyrazolo[1,5-a]pyridin-4-yl)pyridin-2-yl)-3-azabicyclo[3.1.0]hexan-6-yl)picolinamide] | 50 to 100 | > 100 | > 100 | – |
| CC(C)(O)COc1cc(-c2ccc(N3C[C@@H]4[C@@H](CNC(=O)c5ncccc5Cl)[C@@H]4C3)nc2)c2c(C#N)cnn2c1 [Example 95, 3-chloro-N-(((1R,5S,6s)-3-(5-(3-cyano-6-(2-hydroxy-2-methylpropoxy)pyrazolo[1,5-a]pyridin-4-yl)pyridin-2-yl)-3-azabicyclo[3.1.0]hexan-6-yl)methyl)picolinamide] | ≤ 10 | > 100 | 10 to 50 | – |
| Cn1cc(-c2cc(-c3ccc(N4C[C@@H]5[C@H](C4)[C@H]5NC(=O)[C@H](O)c4ccccc4)nc3)c3c(C#N)cnn3c2)cn1 [Example 18, (R)-N-((1R,5S,6s)-3-(5-(3-cyano-6-(1-methyl-1H-pyrazol-4-yl)pyrazolo[1,5-a]pyridin-4-yl)pyridin-2-yl)-3-azabicyclo[3.1.0]hexan-6-yl)-2-hydroxy-2-phenylacetamide] | ≤ 10 | 10 to 50 | – | 10 to 50 |

More lines, main results first:

| IC50 (human RET kinase) [nM] | IC50 (human KDR kinase) [nM] | Structure (SMILES) | IC50 (TT cells; TT) [nM] | IC50 (TT cells) [nM] |
| --- | --- | --- | --- | --- |
| ≤ 10 | ≤ 10 | Cn1cc(-c2cc(-c3ccc(N4C[C@@H]5[C@H](CNC(=O)c6ncccc6Cl)[C@@H]5C4)nc3)c3c(C#N)cnn3c2)cn1 [Example 78, 3-chloro-N-(((1R,5S,6r)-3-(5-(3-cyano-6-(1-methyl-1H-pyrazol-4-yl)pyrazolo[1,5-a]pyridin-4-yl)pyridin-2-yl)-3-azabicyclo[3.1.0]hexan-6-yl)methyl)picolinamide] | ≤ 10 | – |
| ≤ 10 | ≤ 10 | Cc1cccc(Cl)c1C(=O)NC[C@@H]1[C@H]2CN(c3ccc(-c4cc(-c5cnn(C)c5)cn5ncc(C#N)c45)cn3)C[C@@H]12 [Example 185, 2-chloro-N-(((1R,5S,6s)-3-(5-(3-cyano-6-(1-methyl-1H-pyrazol-4-yl)pyrazolo[1,5-a]pyridin-4-yl)pyridin-2-yl)-3-azabicyclo[3.1.0]hexan-6-yl)methyl)-6-methylbenzamide] | 10 to 50 | – |
| ≤ 10 | 50 to 100 | CCOc1cc(-c2ccc(N3C[C@@H]4C[C@@](C)(NC(=O)c5c(C)cccc5Cl)C[C@@H]4C3)nc2)c2c(C#N)cnn2c1 [Example 63, 2-chloro-N-((3aR,5s,6aS)-2-(5-(3-cyano-6-ethoxypyrazolo[1,5-a]pyridin-4-yl)pyridin-2-yl)-5-methyloctahydrocyclopenta[c]pyrrol-5-yl)-6-methylbenzainide] | 10 to 50 | – |
| ≤ 10 | > 100 | CC(O)COc1cc(-c2ccc(N3C[C@H]4CN(C(=O)c5ncccc5Cl)C[C@H]4C3)nc2)c2c(C#N)cnn2c1 (stereo partly drawn) [Example 8, 4-(6-((3aR,6aS)-5-(3-chloropicolinoyl)hexahydropyrrolo[3,4-c]pyrrol-2(1H)-yl)pyridin-3-yl)-6-(2-hydroxypropoxy)pyrazolo[1,5-a]pyridine-3-carbonitrile] | 10 to 50 | – |
| ≤ 10 | ≤ 10 | Cn1cc(-c2cc(-c3ccc(N4C[C@@H]5[C@@H](CNC(=O)c6ncccc6C(F)(F)F)[C@@H]5C4)nc3)c3c(C#N)cnn3c2)cn1 [Example 186, N-(((1R,5S,6s)-3-(5-(3-cyano-6-(1-methyl-1H-pyrazol-4-yl)pyrazolo[1,5-a]pyridin-4-yl)pyridin-2-yl)-3-azabicyclo[3.1.0]hexan-6-yl)methyl)-3-(trifluoromethyl)picolinamide] | ≤ 10 | – |
| ≤ 10 | 50 to 100 | CCOc1cc(-c2ccc(N3C[C@@H]4C[C@@](C)(NC(=O)c5ncccc5C(F)(F)F)C[C@@H]4C3)nc2)c2c(C#N)cnn2c1 [Example 65, N-((3aR,5s,6aS)-2-(5-(3-cyano-6-ethoxypyrazolo[1,5-a]pyridin-4-yl)pyridin-2-yl)-5-methyloctahydrocyclopenta[c]pyrrol-5-yl)-3-(trifluoromethyl)picolinamide] | 10 to 50 | – |
| ≤ 10 | ≤ 10 | COc1ccc(NC(=O)N[C@H]2[C@@H]3CN(c4ccc(-c5cc(-c6cnn(C)c6)cn6ncc(C#N)c56)cn4)C[C@@H]32)cn1 [Example 45, 1-((1R,5S,6s)-3-(5-(3-cyano-6-(1-methyl-1H-pyrazol-4-yl)pyrazolo[1,5-a]pyridin-4-yl)pyridin-2-yl)-3-azabicyclo[3.1.0]hexan-6-yl)-3-(6-methoxypyridin-3-yl)urea] | 50 to 100 | – |
| ≤ 10 | ≤ 10 | Cn1cc(-c2cc(-c3ccc(N4C[C@@H]5[C@H](C4)[C@H]5NC(=O)c4cc(F)ccc4Cl)nc3)c3c(C#N)cnn3c2)cn1 [Example 28, 2-chloro-N-((1R,5S,6s)-3-(5-(3-cyano-6-(1-methyl-1H-pyrazol-4-yl)pyrazolo[1,5-a]pyridin-4-yl)pyridin-2-yl)-3-azabicyclo[3.1.0]hexan-6-yl)-5-fluorobenzamide] | 10 to 50 | – |
